This is an account of results in patent US10005767B2, “Compositions and methods for inhibition of the JAK pathway” (Rigel Pharmaceuticals, Inc., priority 2009, dated 2018).

SMILES strings stand for the structures. Structures can show the parent of a compound that is named as a salt. Some results are limits rather than exact numbers.

For one assay, the system named is human primary T-cells, IL-2 stimulated proliferation (JAK-1 and JAK-3 dependent; reported as JAK3 activity). In words: Human primary T-cell proliferation stimulated by IL-2 (Example 3). It is filed as cell-based. The following applies: Homo sapiens, T-cell, tested under conditions described in Example 3 (IL-2 stimulated human primary T-cell proliferation); read-out: ability to inhibit JAK3 activity, IC50 range (Table V). The method, boiled down:
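Peripheral-blood human T-cells pre-activated via TCR/CD28, IL-2-starved overnight, then cultured 72 h at 37 °C with compound in Yssel's medium containing IL-2 (80 U/mL in cell suspension). Proliferation read as viable-cell ATP by CellTiter-Glo luminescence; reduction versus control taken as JAK pathway inhibition.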
In general, IC50 refers to the midpoint of a concentration-inhibition curve. Turning to `Cc1cnc(Nc2ccc(N3CCN(C)CC3)nc2)nc1Nc1cc(F)c2oc(=O)[nH]c2c1` [II-75, 7-fluoro-5-(5-methyl-2-(6-(4-methylpiperazin-1-yl)pyridin-3-ylamino)pyrimidin-4-ylamino)benzo[d]oxazol-2(3H)-one], the IC50 is less than 500 nM.

Take `COc1ccc(Nc2ncc(C)c(Nc3ccc4oc(=O)[nH]c4c3)n2)cc1C(=O)N1CCOCC1` [Compound I-262, 5-(2-(4-methoxy-3-(morpholine-4-carbonyl)phenylamino)-5-methylpyrimidin-4-ylamino)benzo[d]oxazol-2(3H)-one]: the IC50 was less than 500 nM.

With `Cc1cnc(Nc2c(F)cc(F)cc2F)nc1Nc1ccc2oc(=O)[nH]c2c1` [IV-59, 5-[5-Methyl-2-(2,4,6-trifluoro-phenylamino)-pyrimidin-4-ylamino]-3H-benzooxazol-2-one], the IC50 is more than 10000 nM.

Consider `CN[C@@H]1CCCN(c2ccc(Nc3ncc(C)c(Nc4ccc5oc(=O)[nH]c5c4)n3)cn2)C1` [II-88, (R)-5-(5-methyl-2-(6-(3-(methylamino)piperidin-1-yl)pyridin-3-ylamino)pyrimidin-4-ylamino)benzo[d]oxazol-2(3H)-one], for which the half-inhibitory concentration (IC50) is less than 500 nM.

Consider `Cc1cnc(Nc2cnc(C3CC4CCC(C3)N4C(=O)OC(C)(C)C)c(C)c2)nc1Nc1ccc2oc(=O)[nH]c2c1` (centres unmarked) [II-65, tert-butyl 3-(3-methyl-5-(5-methyl-4-(2-oxo-2,3-dihydrobenzo[d]oxazol-5-ylamino)pyrimidin-2-ylamino)pyridin-2-yl)-8-azabicyclo[3.2.1]octane-8-carboxylate], for which the IC50 was less than 500 nM.

With `Cc1cnc(Nc2ccc(OCC3CCC3)cc2)nc1Nc1ccc2oc(=O)[nH]c2c1` [Compound I-195, 5-[2-(4-Cyclobutylmethoxy-phenylamino)-5-methyl-pyrimidin-4-ylamino]-3H-benzooxazol-2-one], the IC50 was less than 500 nM.

Regarding `Cc1cnc(Nc2ccc(N[C@H]3CCCN(Cc4ccccc4)C3)nc2)nc1Nc1ccc2oc(=O)[nH]c2c1` [II-99, (S)-5-(2-(6-(1-benzylpiperidin-3-ylamino)pyridin-3-ylamino)-5-methylpyrimidin-4-ylamino)benzo[d]oxazol-2(3H)-one], the IC50 is less than 500 nM.

In the case of `Cc1cnc(Nc2ccc(C(=O)NC3CCC3)cc2)nc1Nc1ccc2oc(=O)[nH]c2c1` [Compound I-138, N-Cyclobutyl-4-[5-methyl-4-(2-oxo-2,3-dihydro-benzooxazol-5-ylamino)-pyrimidin-2-ylamino]-benzamide formic acid salt], the 50% inhibitory concentration (IC50) is less than 500 nM.

`Cc1cnc(Nc2ccc(N3CCN(C)CC3)nc2)nc1Nc1ccc2oc(=O)n(C(C)C)c2c1` [II-7, N2-(6-(4-methylpiperazin-1-yl)pyridin-3-yl)-N4-(3-isopropylbenzo[d]oxazol-2(3H)-on-5-yl)-5-methylpyrimidine-2,4-diamine]: the IC50 is less than 500 nM.

As to `COc1ccc(Nc2ncc(C)c(Nc3ccc4oc(=O)[nH]c4c3)n2)cc1Cl` [Compound I-496, 5-[2-(3-Chloro-4-methoxy-phenylamino)-5-methyl-pyrimidin-4-ylamino]-3H-benzooxazol-2-one], the IC50 is less than 500 nM.

Consider `Cc1cnc(Nc2ccc(N(C)[C@H]3CCCNC3)nc2)nc1Nc1ccc2oc(=O)[nH]c2c1` [II-103, (S)-5-(5-methyl-2-(6-(methyl(piperidin-3-yl)amino)pyridin-3-ylamino)pyrimidin-4-ylamino)benzo[d]oxazol-2(3H)-one], for which the IC50 was less than 500 nM.

Turning to `Cc1cnc(Nc2ccc(C(C)N3CCC3)cc2)nc1Nc1ccc2oc(=O)[nH]c2c1` (centres unmarked) [Compound I-201, 5-(2-(4-(1-(azetidin-1-yl)ethyl)phenylamino)-5-methylpyrimidin-4-ylamino)benzo[d]oxazol-2(3H)-one], the IC50 was less than 500 nM.

As to `Cc1cnc(Nc2ccc(C(=O)N3CCN(CC(C)C)CC3)nc2)nc1Nc1ccc2oc(=O)[nH]c2c1` [II-47, 5-{2-[6-(4-Isobutyl-piperazine-1-carbonyl)-pyridin-3-ylamino]-5-methyl-pyrimidin-4-ylamino}-3H-benzooxazol-2-one], the IC50 is less than 500 nM.

With `CCN(CC)C1CCN(C(C)c2cccc(Nc3ncc(C)c(Nc4ccc5oc(=O)[nH]c5c4)n3)c2)C1` (centres unmarked) [Compound I-214, 5-(2-(3-(1-(3-(diethylamino)pyrrolidin-1-yl)ethyl)phenylamino)-5-methylpyrimidin-4-ylamino)benzo[d]oxazol-2(3H)-one], the IC50 was less than 500 nM.

In the case of `Cc1cnc(Nc2ccc3c(c2)C=CCN(C)C3=O)nc1Nc1ccc2oc(=O)[nH]c2c1` [IV-19, (Z)-5-(5-methyl-2-(2-methyl-1-oxo-2,3-dihydro-1H-benzo[c]azepin-7-ylamino)pyrimidin-4-ylamino)benzo[d]oxazol-2(3H)-one], the IC50 was less than 500 nM.

As for `Cc1cnc(Nc2ccc3c(c2)NS(=O)(=O)CO3)nc1Nc1ccc2oc(=O)[nH]c2c1` [IV-16, 5-[2-(2,2-Dioxo-1H-benzo[e][1,3,4]oxathiazin-7-ylamino)-5-methyl-pyrimidin-4-ylamino]-3H-benzooxazol-2-one], the IC50 was less than 500 nM.

On to `COc1ccnc(Nc2ncc(C)c(Nc3ccc4oc(=O)[nH]c4c3)n2)c1` [IV-58, N2-(4-methoxypyridin-2-yl)-5-methyl-N4-(2-oxo-2,3-dihydro-1,3-benzoxazol-5-yl)-2,4-pyrimidinediamine], for which the IC50 was more than 10000 nM.

The same assay, now with this note: tested under conditions described in Example 3 (IL-2 stimulated human primary T-cell proliferation); read-out: ability to inhibit JAK3 activity, IC50 range (Table V).
On to `COc1c(C)cc(Nc2ncc(C)c(Nc3ccc4oc(=O)[nH]c4c3)n2)cc1C` [Compound I-369, N2-(3,5-dimethyl-4-methoxy)phenyl-5-methyl-N4-(2-oxo-2,3-dihydro-1,3-benzoxazol-5-yl)-2,4-pyrimidinediamine], for which the IC50 is less than 500 nM.

On to `NS(=O)(=O)c1ccc(Nc2ncc(F)c(Nc3ccc4oc(=O)[nH]c4c3)n2)cc1` [Compound I-19], for which the IC50 is less than 500 nM.

Regarding `Cc1cnc(Nc2ccc(N3C4CCC3CC(N(C)C)C4)nc2)nc1Nc1ccc2oc(=O)[nH]c2c1` (centres unmarked) [II-137, N2-[2-(3-N,N-dimethylamino-8-azabicyclo[3.2.1]octan-8-yl)pyridin-5-yl]-5-methyl-N4-(2-oxo-2,3-dihydro-1,3-benzoxazol-5-yl)-2,4-pyrimidinediamine], the IC50 was less than 500 nM.

For `Cc1cnc(Nc2ccc(OC(F)F)c(Cl)c2)nc1Nc1ccc2oc(=O)[nH]c2c1` [Compound I-314, N2-(3-chloro-4-difluoromethoxy)phenyl-5-methyl-N4-(2-oxo-2,3-dihydro-1,3-benzoxazol-5-yl)-2,4-pyrimidinediamine], the half-inhibitory concentration (IC50) is less than 500 nM.

As for `Cc1cnc(Nc2ccc(-c3ccncc3)c(C(F)(F)F)c2)nc1Nc1ccc2oc(=O)[nH]c2c1` [Compound I-330, 5-methyl-N4-(2-oxo-2,3-dihydro-1,3-benzoxazol-5-yl)-N2-[4-(pyridin-4-yl)-3-trifluoromethyl]phenyl-2,4-pyrimidinediamine], the half-inhibitory concentration (IC50) was 5000 to 10000 nM.

With `Cc1cnc(Nc2ccc(OC(F)(F)F)c(Cl)c2)nc1Nc1ccc2oc(=O)[nH]c2c1` [Compound I-366, N2-(3-chloro-4-trifluoromethoxy)phenyl-5-methyl-N4-(2-oxo-2,3-dihydro-1,3-benzoxazol-5-yl)-2,4-pyrimidinediamine], the IC50 is less than 500 nM.

As to `COc1cc(Nc2ncc(C)c(Nc3ccc4oc(=O)[nH]c4c3)n2)ccc1N1CCN(C)CC1` [Compound I-340, N2-[3-methoxy-4-(4-methylpiperazino)]phenyl-5-methyl-N4-(2-oxo-2,3-dihydro-1,3-benzoxazol-5-yl)-2,4-pyrimidinediamine], the IC50 was less than 500 nM.

In the case of `Cc1cnc(Nc2ccc(OCC(N)=O)cc2)nc1Nc1ccc2oc(=O)[nH]c2c1` [Compound I-307, N2-(4-aminocarbonylmethoxy)phenyl-5-methyl-N4-(2-oxo-2,3-dihydro-1,3-benzoxazol-5-yl)-2,4-pyrimidinediamine], the concentration for half-maximal inhibition (IC50) is less than 500 nM.

Turning to `Cc1cnc(Nc2ccc(N3CCOC[C@@H]3C)nc2)nc1Nc1ccc2oc(=O)[nH]c2c1` [II-134, 5-methyl-N2-[2-(3 S-methylmorpholino)pyridin-5-yl]-N4-(2-oxo-2,3-dihydro-1,3-benzoxazol-5-yl)-2,4-pyrimidinediamine], the IC50 is less than 500 nM.

On to `COc1cc(Nc2ncc(C)c(Nc3ccc4oc(=O)[nH]c4c3)n2)ccc1C#N` [Compound I-380, N2-(4-cyano-3-methoxy)phenyl-5-methyl-N4-(2-oxo-2,3-dihydro-1,3-benzoxazol-5-yl)-2,4-pyrimidinediamine], for which the concentration for half-maximal inhibition (IC50) is less than 500 nM.

As to `Cc1cnc(Nc2cc(C)c(C)c(C)c2)nc1Nc1cc(Cl)c2oc(=O)[nH]c2c1` [Compound I-522, N4-(7-chloro-2-oxo-2,3-dihydro-1,3-benzoxazol-5-yl)-5-methyl-N2-(3,4,5-trimethyl)phenyl-2,4-pyrimidinediamine], the IC50 is less than 500 nM.

Take `Cc1cnc(Nc2ccncc2F)nc1Nc1ccc2oc(=O)[nH]c2c1` [IV-63, N2-(3-fluoropyridin-4-yl)-5-methyl-N4-(2-oxo-2,3-dihydro-1,3-benzoxazol-5-yl)-2,4-pyrimidinediamine]: the IC50 fell in the range of 5000 to 10000 nM.

With `Cc1ccc(Nc2ncc(C)c(Nc3ccc4oc(=O)[nH]c4c3)n2)cc1F` [Compound I-363, N2-(3-fluoro-4-methyl)phenyl-5-methyl-N4-(2-oxo-2,3-dihydro-1,3-benzoxazol-5-yl)-2,4-pyrimidinediamine], the half-maximal inhibitory concentration (IC50) was less than 500 nM.

For the compound `Cc1cnc(Nc2ccc(NC3CCNCC3)nc2)nc1Nc1ccc2oc(=O)[nH]c2c1` [II-36, N4-(benzo[d]oxazol-2(3H)-on-5-yl)-N2-[2-(1H-piperidin-4-yl)aminopyridin-5-yl]-5-methylpyrimidine-2,4-diamine], the IC50 was less than 500 nM.

For `Cc1cnc(Nc2cc(C)c(C)c(C)c2)nc1Nc1ccc2oc(=O)n(COP(=O)(O)O)c2c1` [Compound I-406, 5-methyl-N4-[3-(phosphonooxy)methyl-2-oxo-2,3-dihydro-1,3-benzoxazol-5-yl]-N2-(3,4,5-trimethyl)phenyl-2,4-pyrimidinediamine], the IC50 fell in the range of 500 to 5000 nM.
